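Test compounds were applied to cells in 96-well plates for 48 hours at 5 doses. Abbreviation: GI50, concentration required for 50% inhibition of growth. Definition used: TGI = concentration required for complete inhibition of growth.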
Assays:
Test in all cases: DTP human tumour cell line panel, 48 h
[1] = system: HCC-2998 colon
[2] = system: COLO 205 colon
[3] = system: OVCAR-5 ovarian
[4] = system: HCT-15 colon
[5] = system: SF-268 CNS
[6] = system: NCI-H522 lung
[7] = system: SNB-75 CNS
[8] = system: A549 NSCLC
[9] = system: LOX IMVI melanoma
[10] = system: M14 melanoma
[11] = system: SK-MEL-5 melanoma
[12] = system: SNB-19 CNS
[13] = system: OVCAR-3 ovarian
[14] = system: SK-MEL-28 melanoma
[15] = system: LXFL 529 NSCLC
[16] = system: NCI-H460 lung
[17] = system: NCI-H23 lung
[18] = system: SF-295 CNS
[19] = system: SN12C renal
[20] = system: UO-31 renal
[21] = system: TK-10 renal
[22] = system: DLD-1 colon
[23] = system: DMS 114 small cell lung
[24] = system: IGROV1 ovarian
[25] = system: DMS 273 small cell lung
[26] = system: KM20L2 colon
[27] = system: OVCAR-4 ovarian
[28] = system: SF-539 CNS
[29] = system: 786-0 renal
[30] = system: SR leukemia
[31] = system: KM12 colon
[32] = system: ACHN renal
[33] = system: HCT-116 colon
[34] = system: SW-620 colon
[35] = system: U251 CNS
[36] = system: SK-MEL-2 melanoma
[37] = system: EKVX NSCLC
[38] = system: RPMI-8226 leukemia
[39] = system: OVCAR-8 ovarian
[40] = system: MALME-3M melanoma
[41] = system: XF 498 CNS
[42] = system: NCI-H226 lung
[43] = system: RXF 393 renal
[44] = system: CAKI-1 renal
[45] = system: UACC-62 melanoma
[46] = system: CCRF-CEM leukemia
[47] = system: HOP-62 NSCLC
[48] = system: SK-OV-3 ovarian
[49] = system: SNB-78 CNS
[50] = system: A498 renal
[51] = system: HT29 colon
[52] = system: MOLT-4 leukemia
[53] = system: HL-60(TB) leukemia
[54] = system: K-562 leukemia
[55] = system: M19-MEL melanoma
[56] = system: UACC-257 melanoma
[57] = system: HOP-92 NSCLC

With `CC(=O)[CH-]C(C)=O.CC(=O)[CH-]C(C)=O.CC(=O)[CH-]C(C)=O.[Ga+3]` the GI50 [1] was greater than 100 µM, the TGI [1] was greater than 100 µM and the GI50 [2] was greater than 100 µM. For the same compound, the TGI [2] was greater than 100 µM, the GI50 [3] was greater than 100 µM and the TGI [3] was greater than 100 µM. For the same compound, the GI50 [4] was greater than 100 µM, the TGI [4] was greater than 100 µM and the GI50 [5] was greater than 100 µM. For the same compound, the TGI [5] was greater than 100 µM, the GI50 [6] was greater than 100 µM and the TGI [6] was greater than 100 µM. The GI50 [7] was greater than 100 µM, the TGI [7] was greater than 100 µM and the GI50 [8] was greater than 100 µM. The TGI [8] was greater than 100 µM, the GI50 [9] was 32.7 µM and the TGI [9] was greater than 100 µM. For the same compound, the GI50 [10] was greater than 100 µM, the TGI [10] was greater than 100 µM and the GI50 [11] was greater than 100 µM. For the same compound, the TGI [11] was greater than 100 µM, the GI50 [12] was greater than 100 µM and the TGI [12] was greater than 100 µM. For the same compound, the GI50 [13] was greater than 100 µM, the TGI [13] was greater than 100 µM and the GI50 [14] was greater than 100 µM. It also gave a TGI [14] greater than 100 µM, a GI50 [15] greater than 100 µM and a TGI [15] greater than 100 µM. For the same compound, the GI50 [16] was greater than 100 µM, the TGI [16] was greater than 100 µM and the GI50 [17] was greater than 100 µM. It also gave a TGI [17] greater than 100 µM, a GI50 [18] greater than 100 µM and a TGI [18] greater than 100 µM. The GI50 [19] was greater than 100 µM, the TGI [19] was greater than 100 µM and the GI50 [20] was greater than 100 µM. For the same compound, the TGI [20] was greater than 100 µM, the GI50 [21] was greater than 100 µM and the TGI [21] was greater than 100 µM. For the same compound, the GI50 [22] was greater than 100 µM, the TGI [22] was greater than 100 µM and the GI50 [23] was greater than 100 µM. The TGI [23] was greater than 100 µM, the GI50 [24] was greater than 100 µM and the TGI [24] was greater than 100 µM. The GI50 [25] was greater than 100 µM, the TGI [25] was greater than 100 µM and the GI50 [26] was greater than 100 µM. The TGI [26] was greater than 100 µM, the GI50 [27] was greater than 100 µM and the TGI [27] was greater than 100 µM. The GI50 [28] was greater than 100 µM, the TGI [28] was greater than 100 µM and the GI50 [29] was greater than 100 µM. For the same compound, the TGI [29] was greater than 100 µM, the GI50 [30] was greater than 100 µM and the TGI [30] was greater than 100 µM. The GI50 [31] was greater than 100 µM, the TGI [31] was greater than 100 µM and the GI50 [32] was greater than 100 µM. It also gave a TGI [32] greater than 100 µM, a GI50 [33] greater than 100 µM and a TGI [33] greater than 100 µM. It also gave a GI50 [34] greater than 100 µM, a TGI [34] greater than 100 µM and a GI50 [35] greater than 100 µM. The TGI [35] was greater than 100 µM, the GI50 [36] was greater than 100 µM and the TGI [36] was greater than 100 µM. It also gave a GI50 [37] greater than 100 µM, a TGI [37] greater than 100 µM and a GI50 [38] greater than 100 µM. For the same compound, the TGI [38] was greater than 100 µM, the GI50 [39] was greater than 100 µM and the TGI [39] was greater than 100 µM. For the same compound, the GI50 [40] was greater than 100 µM, the TGI [40] was greater than 100 µM and the GI50 [41] was greater than 100 µM. It also gave a TGI [41] greater than 100 µM, a GI50 [42] greater than 100 µM and a TGI [42] greater than 100 µM. For the same compound, the GI50 [43] was greater than 100 µM, the TGI [43] was greater than 100 µM and the GI50 [44] was greater than 100 µM. It also gave a TGI [44] greater than 100 µM, a GI50 [45] greater than 100 µM and a TGI [45] greater than 100 µM.

`Oc1cccnc1/C=N/OCc1ccccc1` showed a TGI [1] greater than 100 µM, a TGI [2] greater than 100 µM and a TGI [3] greater than 100 µM. For the same compound, the TGI [4] was greater than 100 µM, the TGI [46] was greater than 100 µM and the TGI [5] was greater than 100 µM. For the same compound, the TGI [6] was greater than 100 µM, the TGI [7] was greater than 100 µM and the TGI [8] was greater than 100 µM. For the same compound, the TGI [47] was greater than 100 µM, the TGI [9] was greater than 100 µM and the TGI [48] was greater than 100 µM. The TGI [10] was greater than 100 µM, the TGI [11] was greater than 100 µM and the TGI [12] was greater than 100 µM. The TGI [13] was greater than 100 µM, the TGI [49] was greater than 100 µM and the TGI [50] was greater than 100 µM. It also gave a TGI [15] greater than 100 µM, a TGI [51] greater than 100 µM and a TGI [16] greater than 100 µM. It also gave a TGI [18] greater than 100 µM, a TGI [19] greater than 100 µM and a TGI [20] greater than 100 µM. The TGI [21] was greater than 100 µM, the TGI [22] was greater than 100 µM and the TGI [23] was greater than 100 µM. For the same compound, the TGI [24] was greater than 100 µM, the TGI [25] was greater than 100 µM and the TGI [26] was greater than 100 µM. For the same compound, the TGI [52] was greater than 100 µM, the TGI [28] was greater than 100 µM and the TGI [53] was greater than 100 µM. For the same compound, the TGI [29] was greater than 100 µM, the TGI [54] was greater than 100 µM and the TGI [31] was greater than 100 µM. The TGI [32] was greater than 100 µM, the TGI [33] was greater than 100 µM and the TGI [34] was greater than 100 µM. It also gave a TGI [35] greater than 100 µM, a TGI [36] greater than 100 µM and a TGI [37] greater than 100 µM. It also gave a TGI [38] greater than 100 µM, a TGI [39] greater than 100 µM and a TGI [40] greater than 100 µM. For the same compound, the TGI [41] was greater than 100 µM, the TGI [42] was greater than 100 µM and the TGI [43] was 72.8 µM. It also gave a TGI [44] greater than 100 µM, a TGI [55] greater than 100 µM and a TGI [56] greater than 100 µM. The TGI [45] was greater than 100 µM.

`O=C(N/N=C(\C1=Nc2ccc(Cl)cc2NC1O)C(O)/C=C/c1ccccc1)c1ccncc1` (stereo unspecified) showed a TGI [1] greater than 100 µM, a TGI [2] greater than 100 µM and a TGI [3] greater than 100 µM. For the same compound, the TGI [4] was greater than 100 µM, the TGI [46] was greater than 100 µM and the TGI [5] was greater than 100 µM. For the same compound, the TGI [6] was greater than 100 µM, the TGI [7] was greater than 100 µM and the TGI [8] was greater than 100 µM. The TGI [47] was greater than 100 µM, the TGI [9] was greater than 100 µM and the TGI [48] was greater than 100 µM. It also gave a TGI [10] greater than 100 µM, a TGI [11] greater than 100 µM and a TGI [12] greater than 100 µM. It also gave a TGI [13] greater than 100 µM, a TGI [14] greater than 100 µM and a TGI [49] greater than 100 µM. The TGI [15] was greater than 100 µM, the TGI [51] was greater than 100 µM and the TGI [16] was greater than 100 µM. The TGI [17] was greater than 100 µM, the TGI [18] was greater than 100 µM and the TGI [19] was greater than 100 µM. The TGI [20] was greater than 100 µM, the TGI [21] was greater than 100 µM and the TGI [22] was greater than 100 µM. It also gave a TGI [23] greater than 100 µM, a TGI [24] greater than 100 µM and a TGI [25] greater than 100 µM. It also gave a TGI [26] greater than 100 µM, a TGI [52] greater than 100 µM and a TGI [27] greater than 100 µM. For the same compound, the TGI [28] was greater than 100 µM, the TGI [53] was greater than 100 µM and the TGI [29] was greater than 100 µM. It also gave a TGI [30] greater than 100 µM, a TGI [54] greater than 100 µM and a TGI [31] greater than 100 µM. The TGI [32] was greater than 100 µM, the TGI [33] was greater than 100 µM and the TGI [34] was greater than 100 µM. For the same compound, the TGI [35] was greater than 100 µM, the TGI [38] was greater than 100 µM and the TGI [39] was greater than 100 µM. For the same compound, the TGI [40] was greater than 100 µM, the TGI [41] was greater than 100 µM and the TGI [42] was greater than 100 µM. The TGI [43] was greater than 100 µM, the TGI [44] was greater than 100 µM and the TGI [57] was greater than 100 µM. It also gave a TGI [55] greater than 100 µM, a TGI [56] greater than 100 µM and a TGI [45] greater than 100 µM.
